The results in this text go back to patent publication US5670479A, “α-ketoamide derivatives as inhibitors of thrombosis” (Corvas International, Inc., priority 1994, dated 1997).

Test [1] deals with Male Harlan Sprague Dawley rats. The experiment in a line: Rat model of FeCl3-induced platelet-dependent arterial thrombosis. Type of test: in vivo. The source says:
Kurz, K. D., Main, B. W., and Sandusky, G. E., Thromb. Res., 60: 269-280. (1990). In this model a platelet-rich, occlusive thrombus is formed in a segment of the rat carotid artery treated with a fresh solution of FeCl3 absorbed to a piece of filter paper. The FeCl3 is thought to diffuse into the treated segment of artery and causes de-endothelialization resulting in thrombus formation. The effect of a test compound on the incidence of occlusive thrombus formation following the application of the FeCl3 is monitored by ultrasonic flowtometry and is used as the primary end point. The use of flowtometry is a modification of the original procedure in which thermal detection of clot formation was employed. Kurz, K. D., Main, B. W., and Sandusky, G. E., Thromb. Res., 60: 269-280 (1990).
Male Harlan Sprague Dawley rats (420-450 g) were acclimated at least 72 hours prior to use and fasted for 12 hours prior to surgery with free access to water. The animals were prepared, anesthetized with Nembutal with catheters for blood pressure monitoring, drug and anesthesia delivery being implanted as described above. The left carotid artery was exposed and isolated by making a midline cervical incision followed by blunt dissection and spreading techniques to separate a 2 cm segment of the vessel from the carotid sheath. A silk suture is inserted under the proximal and distal ends of the isolated vessel to provide clearance for the placement of a ultrasonic flow probe (Transonic) around the proximal end of the vessel. The probe is then secured with a stationary arm.
The test compounds were administered as described above after placement of the flow probe and stabilization of the preparation for a period of 60 minutes prior to the thrombogenic stimulus. At t=0, a 3 mm diameter piece of filter paper (Whatman #3) soaked with […] of a 35% solution of fresh FeCl3 (in water) was applied the segment of isolated carotid artery distal to the flow probe. Blood pressure, blood flow, heart rate, and respiration were monitored for 60 minutes.
The incidence of occlusion (defined as the attainment of zero blood flow) was recorded as the primary end point. Following the 60 minute observation period the flow probe was removed and the area cleared of all excess fluid. The distal and proximal sutures were tied off and arterial clamps placed on the far proximal and distal ends of the segment. The isolated segment was cut out, blotted dry on filter paper and weighed. The segment was re-weighed following removal of the clot and the difference recorded as total % clot (see above). Weights were recorded on only those segments which had detectable thrombus. Following the procedure the animals were euthanized as described above.

Another test has as its target T1, clot-bound a-thrombin (Homo sapiens, UniProt P00734).
T1 construct: from tissue; host or cells: washed clots formed from citrated plasma by adding CaCl2
The experiment in a line: Inhibition of clot-bound thrombin (FPA generation in citrated plasma). The class given is biochemical. How it is done:
Plasma clots were formed around wire hooks by the addition of CaCl2 (final concentration, 25 mM) to 500 μl aliquots of citrated plasma. After aging the clots for 60 minutes at 37° C. with constant agitation, the clots were washed 10 times with 2 ml aliquots of 0.1M NaCl buffered with 0.05M Tris-HCL, pH 7.4 over an 18 hour period. The washed clots were then incubated in 1 ml aliquots of citrated plasma for 60 minutes at 37° C. in the absence or presence of the various inhibitors. At timed intervals, 100 μl aliquots were removed and the reaction was terminated by the addition of the irreversible serine protease inhibitor, D-phenylalanyl-prolinyl-argininyl-CH2 Cl.
Unreacted fibrinogen was precipitated with ethanol, and the ethanol supernatants were then assayed for FPA.

Another test addresses a-thrombin (Homo sapiens, UniProt P00734). The experiment in a line: Amidolytic thrombin assay (inhibitor constant Ki, Ki*). The class given is biochemical. On the set-up: Purified human a-thrombin; purchased Enzyme Research Laboratories, Inc. The settings on record: human a-thrombin 0.25 nM, Pefachrome t-PA substrate, HBSA pH 7.5. The protocol: The ability of the compounds of the present invention to act as inhibitors of thrombin catalytic activity in comparison to Hirulog-1 (compound 25) was assessed by determining their inhibition constant, Ki.
Enzyme activity was determined using the chromogenic substrate Pefachrome t-PA (CH3 SO2 -D-hexahydrotyrosine-glycyl-L-arginine-p-nitroaniline, obtained from Pentapharm Ltd.). The substrate was reconstituted in deionized water prior to use.
Ki values were determined for test compounds using the following methodologies:
The assay was conducted by combining in appropriate wells of a Corning microtiter plate, […], […] of the test compound at a specified concentration diluted in HBSA (or HBSA alone for Vo(uninhibited velocity) measurement), and 50 mL of the chromogenic substrate diluted in HBSA. […] Velocities of Pefachrome-tPA substrate hydrolysis which occurred over a 40 minute time period was measured by the change in absorbance at 405 nm using a Thermo Max® Kinetic Microplate Reader. […]
The initial velocity of Pefachrome t-PA hydrolysis was measured by the change in absorbance at 405 nm using a Thermo Max® Kinetic Microplate Reader over a 2 minute period in which less than 5% of the added substrate was utilized. […]
Ki* was determined by fitting Vs/Vo verses [I] using Equation 1 by non-linear regression analysis. […]

Where [2] appears, read: Group 4: 0.1 mg/kg i.v. bolus + 40 mg/kg/min i.v. infusion.

In general, Ki refers to the dissociation constant of the complex between target and ligand, obtained from inhibition or displacement. Higher therefore signals a looser hold on the target. Regarding “(D-Phe)-Pro-Arg-Pro-(Gly)4 -Asn-Gly-Asp-Phe-Glu-Glu-Ile-Pro-Glu-Glu-Tyr-Leu-OH [Hirulog-1]”, the “Incidence of Occlusion” value in test [1] (Group 1: 0.1 mg/kg i.v. bolus + 5 mg/kg/min i.v. infusion) is 3/3; in test [1] (Group 2: 0.1 mg/kg i.v. bolus + 10 mg/kg/min i.v. infusion) it was 5/6; in test [1] (Group 3: 0.1 mg/kg i.v. bolus + 20 mg/kg/min i.v. infusion), 5/6; in test [1] (setting [2]) it was 0/6. The “% Clot” value in test [1] (Group 1: 0.1 mg/kg i.v. bolus + 5 mg/kg/min i.v. infusion, mean ± S.E.M., segments with detectable thrombus) worked out at 70.1 ± 5.5%; in test [1] (Group 2: 0.1 mg/kg i.v. bolus + 10 mg/kg/min i.v. infusion, mean ± S.E.M., segments with detectable thrombus), 59.42 ± 4.34%; in test [1] (Group 3: 0.1 mg/kg i.v. bolus + 20 mg/kg/min i.v. infusion, mean ± S.E.M., segments with detectable thrombus), 45.3 ± 11.63%; in test [1] (setting [2]), 0%. Further, at clot-bound a-thrombin (citrated human plasma, 60 min, 37° C., compound 8 18.75 nM, Hirulog-1 500 nM, rHIR 4 nM, FIG. 5B), the “inhibition of clot-bound a-thrombin-mediated FPA generation” value is on record as “only transiently inhibited FPA generation”. For the same substance, the “inhibition of clot-bound versus fluid-phase thrombin at 60 minutes incubation” value on clot-bound a-thrombin (percent inhibition of FPA generation at 60 min, FIG. 6) was “less inhibitory activity against clot-bound thrombin”. At a-thrombin, the affinity corresponds to a Ki of 437 pM.
